# Test results as given in the RepoRT retention time repository (doi:10.1016/j.scitotenv.2015.08.078).
# Test: RP, Waters ACQUITY UPLC BEH C18, 100 × 2.1 mm, 1.7 µm, 0.3 mL/min, estimated dead time 0.73 min; A: water + 0.1% formic acid, pH 3; B: methanol + 0.1% formic acid, pH 3; gradient (min/%B) 0/10 14/90 16/90 18/10
# Conditions: stereoisomer not certain
row,SMILES,LC retention time [min]
1,CCn1cc(C(=O)O)c(=O)c2ccc(C)nc21 [Nalidixic acid],7.99
2,COC(=O)c1ccccc1S(=O)(=O)NC(=O)N(C)c1nc(C)nc(OC)n1 [Tribenuron methyl],7.52
3,O=C1OC(CN2CCOCC2)CN1N=Cc1ccc([N+](=O)[O-])o1 (centres undefined) [Furaltadone],2.64
4,CN(C)c1ccc(C(c2ccccc2)c2ccc(N(C)C)cc2)cc1 [Leucomalachite green],10.4
5,CON(C)C(=O)Nc1ccc(Br)c(Cl)c1 [Chlorbromuron],10.1
6,CCOP(=S)(OCC)SCn1c(=O)oc2cc(Cl)ccc21 [Phosalone],12
7,Cc1c(NC=O)c(=O)n(-c2ccccc2)n1C [4-formylamino-Antipyrine],3.78
8,Cc1nc(N(C)C)nc(OC(=O)N(C)C)c1C [Pirimicarb],5.67
9,CCOCCOC(=O)C(C)Oc1ccc(Oc2ncc(C(F)(F)F)cc2Cl)cc1 (centres undefined) [Haloxyfop-2-ethoxyethyl],13.1
10,CCOc1ccc(NC(=O)OC(C)C)cc1OCC [Diethofencarb],9.88
11,COC(=O)c1sccc1S(=O)(=O)NC(=O)Nc1nc(C)nc(OC)n1 [Thifensulfuron methyl],5.04
12,Cc1cnc2c(C(=O)O)c(Cl)ccc2c1 [Quinmerac],3.44
13,COc1cc(OC)nc(NC(=O)NS(=O)(=O)N(C)S(C)(=O)=O)n1 [Amidosulfuron],4.59
14,C[Si](Cn1cncn1)(c1ccc(F)cc1)c1ccc(F)cc1 [Flusilazole],11.4
15,CCC(C)C1OC2(C=CC1C)CC1CC(CC=C(C)C(OC3CC(OC)C(OC4CC(OC)C(NC)C(C)O4)C(C)O3)C(C)C=CC=C3COC4C(O)C(C)=CC(C(=O)O1)C34O)O2 (centres undefined) [Emamectin B1a],13.8
16,COP(=S)(OC)Oc1ccc([N+](=O)[O-])c(C)c1 [Fenitrothion],10.5
17,CC1=C(C(=O)O)N2C(=O)C(NC(=O)C(N)c3ccc(O)cc3)C2SC1 (centres undefined) [Cefadroxil],4.91
18,c1coc(-c2nc3ccccc3[nH]2)c1 [Fuberidazole],6.61
19,O=C1CCc2cccc3c2N1CC3 [Pyroquilon],7.09
20,CON=C(C(=O)NC1C(=O)N2C(C(=O)O)=C(COC(C)=O)CSC12)c1csc(N)n1 (centres undefined) [Cefotaxime],4.41
21,COc1cnc(NS(=O)(=O)c2ccc(N)cc2)nc1 [Sulfameter],3.2
22,CNC(=O)CSP(=S)(OC)OC [Dimethoate],5.37

row,SMILES,LC retention time [min]
1,Cc1cc(C)nc(Nc2ccccc2)n1 [Pyrimethanil],9.86
2,CC1CCc2cc(F)cc3c(=O)c(C(=O)O)cn1c23 (centres undefined) [Flumequine],7.49
3,CON=C(C(=O)OC)c1ccccc1COc1ccccc1C [Kresoxim-methyl],11.7
4,CCCN(CC)CC1COC2(CCC(C(C)(C)C)CC2)O1 (centres undefined) [Spiroxamine],10
5,CC12C=CC(=O)C=C1CCC1C2CCC2(C)C(=O)CCC12 (centres undefined) [1.4-Androstadiene-3.17-dione (Boldione)],9.82
6,CCOC(=O)NCCOc1ccc(Oc2ccccc2)cc1 [Fenoxycarb],12.4
7,Nc1ccc(S(=O)(=O)Nc2ncccn2)cc1 [Sulfadiazine],2.09
8,CCC(=O)C(CC(C)N(C)C)(c1ccccc1)c1ccccc1 (centres undefined) [Methadone],10.4
9,CCN(CC)C(=O)C(C)Oc1cccc2ccccc12 (centres undefined) [Napropamide],11
10,CC1COc2c(N3CCN(C)CC3)c(F)cc3c(=O)c(C(=O)O)cn1c23 (centres undefined) [Ofloxacin],4.08
11,CC1CCCC(O)CCCCCc2cc(O)cc(O)c2C(=O)O1 (centres undefined) [Zeranol (Alfa Zearalanol. a-ZAL)],10.7
12,COc1ccc(C(CN(C)C)C2(O)CCCCC2)cc1 (centres undefined) [Venlafaxine],7.23
13,CCCOC(=O)NCCCN(C)C [Propamocarb],2.28
14,COc1nn(CSP(=S)(OC)OC)c(=O)s1 [Methidathion],9.91
15,CC(Oc1ccc(Oc2ncc(C(F)(F)F)cc2Cl)cc1)C(=O)O (centres undefined) [Haloxyfop],11.8
16,CCC(=O)OC1(C(=O)CCl)C(C)CC2C3CCC4=CC(=O)C=CC4(C)C3(F)C(O)CC21C (centres undefined) [Clobetasol propionate],11.4
17,CCOC(=O)c1ccccc1S(=O)(=O)NC(=O)Nc1nc(Cl)cc(OC)n1 [Chlorimuron ethyl],8.65
18,CC(C)Oc1cc(-n2nc(C(C)(C)C)oc2=O)c(Cl)cc1Cl [Oxadiazon],13
19,COCC(C)N(C(=O)CCl)c1c(C)csc1C (centres undefined) [Dimethenamid],10.1
20,COC(=O)c1ccccc1S(=O)(=O)NC(=O)Nc1nc(C)nc(OC)n1 [Metsulfuron methyl],5
21,Cc1cccc(C)c1N(C(=O)CCl)C1CCOC1=O (centres undefined) [Ofurace],7.69
22,CN(C(=O)COc1nc2ccccc2s1)c1ccccc1 [Mefenacet],10.7

row,SMILES,LC retention time [min]
1,CCOC(=O)c1cn2nc(OP(=S)(OCC)OCC)cc2nc1C [Pyrazophos],11.9
2,CCN(CC)C(=O)SCc1ccccc1Cl [Orbencarb],11.9
3,CCc1ccc(C(=O)NN(C(=O)c2cc(C)cc(C)c2)C(C)(C)C)cc1 [Tebufenozide],11.5
4,CCOP(=S)(OCC)SCn1nnc2ccccc2c1=O [Azinphos-ethyl],10.8
5,CC(=O)OCC12CC(OC(=O)CC(C)C)C(C)=CC1OC1C(O)C(O)C2(C)C12CO2 (centres undefined) [HT-2 Toxin],7.95
6,CCN(CC)C(=O)SCc1ccc(Cl)cc1 [Thiobencarb],12.9
7,CSc1nc(N)nc(NC(C)(C)C)n1 [Deethylterbutryn],9.3
8,CCS(=O)Cc1ccccc1OC(=O)NC (centres undefined) [Ethiofencarb sulfoxide],4.6
9,O=C(Nc1ccccc1)Nc1cnns1 [Thidiazuron],7.36
10,COC(=O)c1ccccc1CS(=O)(=O)NC(=O)Nc1nc(OC)cc(OC)n1 [Bensulfuron methyl],9.29
11,Cc1cc(NS(=O)(=O)c2ccc(N)cc2)no1 [Sulfamethoxazole],3.91
12,CCOP(=S)(OCC)SCCS(=O)(=O)CC [Disulfoton-sulfone],8.76
13,Cc1cc2c(s1)Nc1ccccc1N=C2N1CCN(C)CC1 [Olanzapine],3.3
14,COc1cc2c(c3c1C1CCC(=O)C1C(=O)O3)C1CCOC1O2 (centres undefined) [Aflatoxin B2],7.55
15,CCOc1cc(Oc2ccc(C(F)(F)F)cc2Cl)ccc1[N+](=O)[O-] [Oxyfluorfen],13.8
16,CCN(CC)CCOC(=O)c1ccc(N)cc1 [Procaine],2.19
17,CCOP(=S)(OCC)Oc1cnc2ccccc2n1 [Quinalphos],11.3
18,CCCSP(=O)(OCC)Oc1ccc(Br)cc1Cl (centres undefined) [Profenofos],12.7
19,C=CCOC(Cn1ccnc1)c1ccc(Cl)cc1Cl (centres undefined) [Imazalil],9.14
20,CCn1cc(C(=O)O)c(=O)c2cnc(N3CCNCC3)nc21 [Pipemidic acid],3.48
